Measured values as given in article PMC5980259, “GI‐530159, a novel, selective, mechanosensitive two‐pore‐domain potassium (K2P) channel opener, reduces rat dorsal root ganglion neuron excitability” (British Journal of Pharmacology, 2017).

Assays:
Kv11.1 (hERG) = Kv11.1 (hERG) (Homo sapiens, UniProt Q12809); settings: 10 μM
NaV1.8 = NaV1.8 (Homo sapiens, UniProt Q9Y5Y9); assay: Sodium channel selectivity, NaV1.8; type: cell-based; settings: read-out: EC50 against NaV1.8
[1] = test system: Na current in DRG neurons; assay: Voltage-clamp recordings from DRG neurons, Na current; type: cell-based, rat
Experimental: Acutely dissociated rat DRG cells were obtained according to a previously described protocol (Passmore, 2005). All animal care and experimental procedures complied with guidelines and were approved by the Pfizer Neusentis Institutional Animal Use and Care Committee. Animal studies are reported in compliance with the ARRIVE guidelines (Kilkenny et al., 2010; McGrath and Lilley, 2015).Cells were plated on coated coverslips (poly‐D‐lysine/laminin, BD Biosciences, San Jose, CA, USA) prior to patching on the same day. Cells were perfused with an extracellular solution containing (in mM): 135 NaCl, 4.7 KCl, 1 CaCl2, 1 MgCl2, 10 HEPES and 10 glucose, pH 7.4, with NaOH (310 mOsmol·L^−1). Pipette solution contained (in mM): 130 KCl, 1 MgCl2, 5 MgATP, 10 HEPES and 5 EGTA, pH adjusted to 7.3 with KOH (290 mOsmol·L^−1). For whole‐cell recordings, currents were filtered at 2 kHz and sampled at 5 kHz. Series resistance was compensated for by up to 80%. For current‐clamp recordings, action potential firing and resting membrane potential (RMP) were recorded from small cells ([…]). GI‐530159 was dissolved in 0.3% DMSO as 10 mM stock and applied in the vicinity of cells using a gravity fed perfusion system (MSC‐200, Bio‐Logic SAS, Claix, France).

[2] = molecular target: T1, human TREK1 single channels (Homo sapiens, UniProt O95069); assay: Single-channel recording, excised inside-out patches from HEK293 cells; type: biochemical; settings: 10 μM on intracellular side, +60 mV
T1 construct: expressed in transfected cells
Experimental: Human TREK1 single channels were recorded in excised inside‐out membrane patches using an Axopatch 200B patch‐clamp amplifier and pCLAMP 10 software. Inside‐out membrane patches were excised from HEK293 cells expressing human TREK1 channels. Sylguard® 184‐coated glass pipettes with resistance around 10–15 MΩ were used. Pipette and bath compositions for inside‐out patches were opposite to those used in voltage‐clamp, that is, the pipette solution on the extracellular face of the channels contained 130 mM K and the bath solution on the intracellular face of the channel contained 4.7 mM K. Channel activities were recorded at +60 mV. The action of a hTREK1 opener was tested by addition to the intracellular solution. Single‐channel records were filtered with an eight‐pole Bessel filter (model LHBF‐48X, npi electronic GmbH, Tamm, Germany) at a corner frequency (fc) of 2 kHz and acquired using a DigiData 1440A interface and pCLAMP 10 software at a sampling rate of 20 kHz. Single‐channel traces were generated without further filtering.

Kv7.3 = Kv7.3 (Homo sapiens, UniProt O43525); assay: Rb+ efflux assay, Kv7.3; type: cell-based
K2P18.1 (TRESK) = molecular target: T2, K2P18.1 (TRESK) (Homo sapiens, UniProt Q7Z418); assay: Manual patch clamp in recombinant cell lines, TRESK; type: cell-based; settings: 10 μM; n = 4
T2 construct: expressed in transfected cells
T2 sequence (Q7Z418 whole entry, species assumed): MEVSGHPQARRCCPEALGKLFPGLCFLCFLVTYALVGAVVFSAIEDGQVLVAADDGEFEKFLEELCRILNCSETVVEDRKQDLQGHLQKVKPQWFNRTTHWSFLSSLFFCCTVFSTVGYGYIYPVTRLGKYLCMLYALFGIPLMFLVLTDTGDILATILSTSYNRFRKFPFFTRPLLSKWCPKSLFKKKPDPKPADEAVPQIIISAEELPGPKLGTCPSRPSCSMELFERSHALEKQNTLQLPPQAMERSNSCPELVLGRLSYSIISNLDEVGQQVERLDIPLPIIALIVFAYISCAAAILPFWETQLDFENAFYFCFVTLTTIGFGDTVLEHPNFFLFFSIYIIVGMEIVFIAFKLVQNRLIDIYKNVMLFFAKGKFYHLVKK

TASK2 (K2P5.1) = TASK2 (K2P5.1) (Homo sapiens, UniProt O95279); assay: Rb+ efflux assay, TASK2; type: cell-based
TASK2 (K2P5.1), sequence (O95279 whole entry, species assumed): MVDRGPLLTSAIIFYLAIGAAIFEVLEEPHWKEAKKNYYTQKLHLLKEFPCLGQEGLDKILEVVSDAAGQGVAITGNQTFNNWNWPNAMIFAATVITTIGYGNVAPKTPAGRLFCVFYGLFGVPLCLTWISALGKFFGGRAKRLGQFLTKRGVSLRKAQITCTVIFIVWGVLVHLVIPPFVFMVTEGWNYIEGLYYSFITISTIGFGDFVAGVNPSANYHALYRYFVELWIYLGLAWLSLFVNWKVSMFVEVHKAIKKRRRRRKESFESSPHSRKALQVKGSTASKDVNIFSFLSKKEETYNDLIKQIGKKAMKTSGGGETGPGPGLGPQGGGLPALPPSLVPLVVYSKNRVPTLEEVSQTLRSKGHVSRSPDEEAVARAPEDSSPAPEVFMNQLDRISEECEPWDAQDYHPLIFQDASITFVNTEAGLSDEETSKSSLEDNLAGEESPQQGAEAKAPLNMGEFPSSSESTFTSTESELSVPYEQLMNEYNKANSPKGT

hTREK1 = molecular target: T3, hTREK1 (Homo sapiens, UniProt O95069); assay: Whole-cell patch clamp, transiently transfected tsA-201 cells, TREK1; type: cell-based; parameters: expressed in transfected cells; host or cells: tsA-201, transient, pcDNA3.1 vector, GFP from a separate vector; settings: 1 μM, n = 6
T3 sequence (O95069 1-426): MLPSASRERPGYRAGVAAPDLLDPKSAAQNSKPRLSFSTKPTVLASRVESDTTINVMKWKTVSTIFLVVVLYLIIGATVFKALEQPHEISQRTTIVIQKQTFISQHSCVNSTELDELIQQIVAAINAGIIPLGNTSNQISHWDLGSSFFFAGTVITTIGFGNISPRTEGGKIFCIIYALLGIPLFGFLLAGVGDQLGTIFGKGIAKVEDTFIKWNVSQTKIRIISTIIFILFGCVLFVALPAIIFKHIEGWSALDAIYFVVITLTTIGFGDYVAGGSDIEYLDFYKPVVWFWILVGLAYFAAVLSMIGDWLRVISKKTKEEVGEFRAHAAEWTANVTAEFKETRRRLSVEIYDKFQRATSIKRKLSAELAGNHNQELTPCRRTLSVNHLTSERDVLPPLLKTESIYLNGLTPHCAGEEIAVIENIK
Experimental: (§1) Recordings of hTREK1, hTREK1∆N, hTREK2, hTRAAK and […] currents from transiently transfected tsA‐201 cells were performed using methods as described in Veale and Mathie (2016). Briefly, the pcDNA3.1 vector was cloned with the gene of interest, and these vectors and a similar vector containing GFP were incorporated into the tsA201 cells (0.5 μg per well) using the calcium phosphate method. The cells were incubated for 6–12 h at 37°C in […] and 5% carbon dioxide. Cells were then washed using a PBS solution and used for experiments after 24 h.
(§2) Currents were recorded using whole‐cell patch‐clamp using an Axopatch 1D amplifier. Cells were placed in a recording chamber filled with an external medium composed of 145 mM, NaCl, 2.5 mM KCl, 3 mM MgCl2, 1 mM CaCl2 and 10 mM HEPES (pH to 7.4, using NaOH). The internal medium used in the glass pipette comprised 150 mM KCl, 3 mM MgCl2, 5 mM (or 0.1 mM) EGTA and 10 mM HEPES (pH to 7.4, using KOH). GI‐530159 was applied by bath perfusion. Currents were recorded and analysed using pCLAMP 10.2 software Microsoft Excel. The voltage protocol used for recording current through K2P channels was as previously described (Veale and Mathie, 2016). For analysis, we measured the current difference between the −80 and −40 mV steps.

hTREK1∆N = molecular target: T4, hTREK1∆N (Homo sapiens, UniProt O95069); assay: Whole-cell patch clamp, transiently transfected tsA-201 cells, TREK1ΔN; type: cell-based; settings: 1 μM, n = 5
T4 construct: expressed in transfected cells; host or cells: tsA-201, transient, pcDNA3.1 vector
Experimental: as §1, §2

Kv11.1 (hERG), sequence (Q12809 whole entry): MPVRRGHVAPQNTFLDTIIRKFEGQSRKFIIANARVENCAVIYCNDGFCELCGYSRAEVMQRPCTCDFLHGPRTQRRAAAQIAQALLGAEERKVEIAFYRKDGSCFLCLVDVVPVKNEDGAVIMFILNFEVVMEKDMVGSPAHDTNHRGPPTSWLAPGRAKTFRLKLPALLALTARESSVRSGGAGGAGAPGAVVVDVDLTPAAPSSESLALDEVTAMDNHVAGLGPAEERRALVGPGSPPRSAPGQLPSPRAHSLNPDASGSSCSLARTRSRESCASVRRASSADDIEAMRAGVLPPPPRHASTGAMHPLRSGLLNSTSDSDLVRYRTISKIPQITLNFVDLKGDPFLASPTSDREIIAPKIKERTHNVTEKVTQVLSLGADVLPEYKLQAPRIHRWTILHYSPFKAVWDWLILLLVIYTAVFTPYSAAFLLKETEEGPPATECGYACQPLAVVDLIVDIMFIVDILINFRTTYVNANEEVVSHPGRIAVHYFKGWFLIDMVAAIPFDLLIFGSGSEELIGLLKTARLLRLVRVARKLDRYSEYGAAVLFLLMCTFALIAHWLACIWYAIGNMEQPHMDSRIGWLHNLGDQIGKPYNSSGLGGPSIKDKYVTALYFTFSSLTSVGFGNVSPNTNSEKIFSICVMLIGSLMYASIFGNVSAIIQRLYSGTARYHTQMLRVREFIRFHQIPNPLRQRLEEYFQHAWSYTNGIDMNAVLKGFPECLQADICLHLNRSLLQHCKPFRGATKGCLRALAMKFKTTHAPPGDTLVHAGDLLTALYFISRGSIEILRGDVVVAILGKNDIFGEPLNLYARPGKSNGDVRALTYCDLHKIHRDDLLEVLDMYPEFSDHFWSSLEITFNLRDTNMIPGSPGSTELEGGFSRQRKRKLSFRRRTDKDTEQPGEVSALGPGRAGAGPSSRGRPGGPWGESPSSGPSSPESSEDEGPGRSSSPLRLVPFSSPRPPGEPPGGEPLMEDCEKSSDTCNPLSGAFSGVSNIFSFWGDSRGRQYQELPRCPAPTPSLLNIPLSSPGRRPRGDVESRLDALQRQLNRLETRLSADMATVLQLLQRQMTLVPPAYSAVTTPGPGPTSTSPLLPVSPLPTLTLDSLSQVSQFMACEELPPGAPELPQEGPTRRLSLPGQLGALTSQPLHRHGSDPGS
NaV1.8, sequence (Q9Y5Y9 whole entry): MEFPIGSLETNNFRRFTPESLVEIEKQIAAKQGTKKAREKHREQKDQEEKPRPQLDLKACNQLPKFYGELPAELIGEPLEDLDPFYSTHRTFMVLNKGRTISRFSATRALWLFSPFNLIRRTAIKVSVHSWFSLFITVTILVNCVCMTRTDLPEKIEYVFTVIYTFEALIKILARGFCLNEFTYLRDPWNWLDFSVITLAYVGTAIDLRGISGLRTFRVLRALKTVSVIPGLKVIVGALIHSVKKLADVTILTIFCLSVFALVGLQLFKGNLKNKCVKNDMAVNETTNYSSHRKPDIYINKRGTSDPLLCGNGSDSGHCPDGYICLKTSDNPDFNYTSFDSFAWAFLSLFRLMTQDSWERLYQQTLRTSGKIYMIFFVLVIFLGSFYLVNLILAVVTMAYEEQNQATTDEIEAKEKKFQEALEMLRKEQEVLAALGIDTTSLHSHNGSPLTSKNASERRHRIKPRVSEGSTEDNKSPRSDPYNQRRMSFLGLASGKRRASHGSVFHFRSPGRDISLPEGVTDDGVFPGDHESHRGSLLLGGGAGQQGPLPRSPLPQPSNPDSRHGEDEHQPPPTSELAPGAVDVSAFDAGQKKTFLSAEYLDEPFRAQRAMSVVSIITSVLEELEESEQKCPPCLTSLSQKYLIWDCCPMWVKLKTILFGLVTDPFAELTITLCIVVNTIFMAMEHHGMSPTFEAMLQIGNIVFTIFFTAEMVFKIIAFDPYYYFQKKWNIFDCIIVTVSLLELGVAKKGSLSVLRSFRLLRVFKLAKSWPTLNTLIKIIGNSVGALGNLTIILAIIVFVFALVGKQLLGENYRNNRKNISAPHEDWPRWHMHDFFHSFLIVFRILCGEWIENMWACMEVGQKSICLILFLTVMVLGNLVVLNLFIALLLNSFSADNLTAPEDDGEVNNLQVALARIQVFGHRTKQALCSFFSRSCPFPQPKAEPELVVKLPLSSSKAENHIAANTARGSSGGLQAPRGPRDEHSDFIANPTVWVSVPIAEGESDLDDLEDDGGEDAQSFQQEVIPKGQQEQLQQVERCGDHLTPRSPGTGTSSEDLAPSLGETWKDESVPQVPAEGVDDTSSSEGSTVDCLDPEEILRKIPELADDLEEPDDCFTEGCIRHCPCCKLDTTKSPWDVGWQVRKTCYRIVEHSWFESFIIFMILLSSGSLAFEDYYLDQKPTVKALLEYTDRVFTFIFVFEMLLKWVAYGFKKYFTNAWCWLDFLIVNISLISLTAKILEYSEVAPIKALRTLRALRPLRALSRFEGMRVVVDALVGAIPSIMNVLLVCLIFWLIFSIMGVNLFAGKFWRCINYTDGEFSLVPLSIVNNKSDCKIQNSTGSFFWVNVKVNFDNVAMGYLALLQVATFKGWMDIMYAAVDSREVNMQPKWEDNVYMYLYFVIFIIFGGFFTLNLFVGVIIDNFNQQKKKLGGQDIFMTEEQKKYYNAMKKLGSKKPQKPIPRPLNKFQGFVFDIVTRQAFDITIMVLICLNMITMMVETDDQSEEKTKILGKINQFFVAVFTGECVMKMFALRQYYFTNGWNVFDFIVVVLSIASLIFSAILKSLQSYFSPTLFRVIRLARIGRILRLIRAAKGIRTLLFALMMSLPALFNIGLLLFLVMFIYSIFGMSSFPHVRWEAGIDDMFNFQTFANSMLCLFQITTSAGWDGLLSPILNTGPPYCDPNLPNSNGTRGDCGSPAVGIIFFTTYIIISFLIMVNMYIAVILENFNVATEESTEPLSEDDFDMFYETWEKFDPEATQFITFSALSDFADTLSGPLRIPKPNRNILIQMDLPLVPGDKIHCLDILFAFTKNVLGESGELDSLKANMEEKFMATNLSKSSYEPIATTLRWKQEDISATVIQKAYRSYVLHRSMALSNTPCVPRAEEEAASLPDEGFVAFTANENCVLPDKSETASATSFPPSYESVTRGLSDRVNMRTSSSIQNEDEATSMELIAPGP

Nc1ccc(Oc2ccc(C(c3ccc(Oc4ccc(N)cc4)cc3)(C(F)(F)F)C(F)(F)F)cc2)cc1 [GI‐530159, 4,4′‐(hexafluoroisopropylidene)bis(p‐phenyleneoxy)dianiline]
effect on Kv11.1 (hERG) current (Kv11.1 (hERG)): −7.3 ± 5.1% | EC50 (NaV1.8): > 100 µM | block of Na current in DRG neurons [1]: not observed | single-channel current amplitude [2]: not altered | channel open probability ([2]; exemplar recording, 0.009 before application): 0.025 | activator effect on Kv7.3 (Kv7.3): no activator effects | effect on K2P18.1 (TRESK) current (K2P18.1 (TRESK)): −2.0 ± 3.5% | activator effect on TASK2 (K2P5.1) (TASK2 (K2P5.1)): no activator effects | enhancement of TREK1 current (hTREK1): 69 ± 12% | enhancement of TREK1ΔN current (hTREK1∆N): 377 ± 57%
